Source: paper PMC9271048, “Probing strigolactone perception mechanisms with rationally designed small-molecule agonists stimulating germination of root parasitic weeds” (Nature Communications, 2022)
pEC50: −log10 of the molar value.

Key:
[1] = test system: Striga hermonthica seeds; assay: S. hermonthica seed germination assay; assay type: in vivo; details: source data of Fig. 2d, average of 2 or 3; for pEC50: Striga hermonthica, 48 h
Method: Two hundred mg of Striga hermonthica seeds were surface sterilized in 2% sodium hypochlorite containing 0.02% Tween-20 for 5 min, and then washed five times with sterile MilliQ water. The sterilized Striga seeds were spread on sterile glass fiber-filter papers (Whatman® GF/A, Sigma–Aldrich) in Petri dishes containing filter paper moistened with 3 mL sterile MilliQ water. The Petri dishes were incubated 6–8 days at 30 °C for preconditioning after which the seeds were dried in a laminar sterile air flow for 2 h. The germination bioassay was performed in 0.1% agarose and 0.1 ppm rac-GR24 was used as a positive control. Stocks of rac-GR24 and other compounds were prepared in acetone and diluted before use. Dried preconditioned seeds were added to the agarose containing the relevant compound, which was subsequently divided over three wells of a 12-well Cell Culture Treated Plates (Fisher Scientific, Landsmeer, the Netherlands). The plates were sealed and incubated in the dark at 30 °C for 2 days. The Striga germination rate in % (GR%) was calculated for each replicate using the formula: GR% = (Ngs/Nts) × 100, where Ngs is the number of germinated seeds per well and Nts is the total number of seeds per well. EC50 values of the compounds were calculated using http://www.ic50.tk/index.html.

[2] = test system: Arabidopsis thaliana (Col-0); assay: Arabidopsis root hair assay; assay type: in vivo; details: Col-0 seedlings on 1/2 MS medium, 1 μM; Supplementary Fig. 15; in µm (unit assumed)
Method: (§1) For Arabidopsis root hair assay, Arabidopsis thaliana (Col-0) seeds were surface sterilized by using 1% NaClO solution for 60 s and 75% ethanol solution for 60 s, and then washed by sterilized distilled water five times. The sterilized seeds were sowed on 1/2 MS media (2.202 g/L Murashige and Skoog basal salts, 0.5 g/L MES, 10 g/L sucrose, and 10 g/L agar, pH 5.7) which contained indicated concentrations of compounds. 0.1% DMSO was used as a negative control. The plates were placed 4 days at 4 °C and then placed vertically under fluorescent white light (100–150 μmol m^−2 s^−1) with 16 h light and 8 h dark at 20 ± 1 °C for 15 days[17],[55]. The root hairs were imaged by OLYMPUS (U-HGLGPS), and the lengths were analyzed by ImageJ. The experiments were repeated three times. For Arabidopsis shoot branching assay: Col-0 and max4-1 seeds were used in this experiment. Seeds surface sterilization was sterilized as described above. The Arabidopsis seedlings were placed on top of the cut black microcentrifuge tubes filled with 1/2 MS. The tubes were placed 4 days at 4 °C and then moved to fluorescent white light (100–150 μmol m^−2 s^−1) with 16 h light and 8 h dark at 20 ± 1 °C for 7 days[26]. The germinated seedlings were grown on hydroponic culture solutions (containing indicated concentrations of 4a, (R)- and (S)-4a), with the solution containing 0.01% DMSO as the negative control. The solutions were renewed every week. After 4 weeks, the numbers of rosette axillaries were analyzed.
type Arabidopsis. a, Representative primary root segments of Col-0 seedlings growing on 1/2 MS
medium with or without 1 μM tested chemicals. Scale bar, […]. b, The average length of root
hair is presented as means ± SD (n = 3 biologically independent experiments).
(1 picture or pasted object on this page, not shown here)

[3] = test system: ShHTL7-AtMAX2 interaction; assay: Yeast two-hybrid assay ShHTL7-AtMAX2; assay type: cell-based, Striga hermonthica
Method: To construct plasmids for yeast two-hybrid assays, the CDS of ShHTL7 and AtD14 were cloned into yeast expression vector pBrigde to generate BD-ShHTL7 and BD-AtD14, and the CDS of ShMAX2, AtMAX2, SMAX1 were cloned into pGADT7 to make Gal4 DNA activation domain (AD) constructs, respectively. Primers used for yeast expression vector construction are listed in Supplementary Table 6. Yeast two-hybrid assays were performed using the Yeastmaker Yeast Transformation System 2 (Clontech). In brief, Yeast AH109 cells were co-transformed with specific bait and prey constructs and coated on selective growth medium SD/-Leu-Trp for 3 days at 30 °C, pick the positive constructs into liquid selective growth medium SD/-Leu-Trp shaking for 36 h at 30 °C. Washed yeast cells three times and diluted, made sure OD600 reached 2.5, then serial 10-fold dilutions of yeast cultures were spotted onto selective growth mediums that were supplemented with different concentrations of rac-GR24 and tested molecules, respectively. All yeast transformants were grown on a selective growth medium at 30 °C for 3 days.

[4] = test system: max4-1; assay: Arabidopsis shoot branching assay; assay type: in vivo, Arabidopsis thaliana; details: max4-1, 1 μM; Fig. 4c source data
Method: as §1

[5] = biological target: ShHTL7 (Striga hermonthica, UniProt A0A0M3PNA2); assay: Mass spectrometric analysis of covalent modification of ShHTL7; assay type: biochemical; details: for mass increase of compound-treated ShHTL7 protein: Q-TOF MS of full-length protein, modification on His246; for covalent modification of ShHTL7: MS of compound-treated ShHTL7
Excerpt: This was consistent with the hydrolysis of natural and synthetic SLs, in which, the (2′R)-isomers are more prone to hydrolysis by ShHTL7 than the (2′S)-isomers[26],[40]. […] Based on the above observations, we inferred that (S)-4a may have similar biochemical properties as 2′R-configured SLs. We then examined whether (S)-4a binding, just as for rac-GR24, would result in a covalently linked molecule in ShHTL7 by using Q-TOF mass spectrometry (SYNAPT-G2-Si, Waters company) analysis. […] For (R)-4a and 4g, a weak peak (increase of 95 Da or 94 Da) of similar modification was found, respectively (Fig. 3). A similar modification was not observed in 4h and 4i treated samples (Supplementary Fig. 12b, c). To furtherly identify the specific modification of the increased mass of 94 Da or 95 Da, we incubated (R)-4a, (S)-4a, and 4g with ShHTL7, followed by gel digestion and MS/MS analysis. […] No covalently linked molecule presence was identified in 4h treated ShHTL7 (Supplementary Fig. 12b). We assume that this is due to the fact that the N-CH3 D-lactam modified His246 is more reactive, resulting in quick decomposition of the intermediate.
For LC-MS analysis: a 200 μL reaction solution (100 mM HEPES, 150 mM NaCl, pH 7.0) containing 10, or 400 μM of tested samples 4a, (R)- and (S)-4a, and 4g-i, and 100 μg of recombinant ShHTL7 or its mutants was incubated at 25 °C for 30 min. Subsequently, the solution was filtered and analyzed by a nanoACQUITY UPLC system, which was directly interfaced with an SYNAPT-G2-Si mass spectrometer produced by Waters Company. For LC-MS/MS analysis, the above chemicals treated ShHTL7 reaction solution was subjected to the SDS-PAGE analysis. The corresponding protein band around 30 KDa was excised, respectively, then digested with trypsin (Promega) in NH4HCO3 solution (50 mM) at 37 °C for 24 h[23],[26]–[28]. The covalent modification of C5H5O2/C6H6O on the peptide was analyzed by a Thermo-Dionex Ultimate 3000 HPLC system, which was directly interfaced with a Thermo Orbitrap Fusion Lumos mass spectrometer. MS-MS spectra are generated by pLabel software[53],[54].

Sequence of ShHTL7 (A0A0M3PNA2 entry or part of it): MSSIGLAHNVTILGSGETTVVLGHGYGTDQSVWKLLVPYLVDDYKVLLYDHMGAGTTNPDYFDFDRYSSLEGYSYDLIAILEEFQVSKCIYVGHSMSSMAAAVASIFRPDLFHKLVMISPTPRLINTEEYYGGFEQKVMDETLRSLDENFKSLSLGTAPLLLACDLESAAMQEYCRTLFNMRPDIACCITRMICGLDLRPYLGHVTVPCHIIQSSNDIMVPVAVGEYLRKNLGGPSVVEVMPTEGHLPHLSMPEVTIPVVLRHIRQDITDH

| Compound | average length of root hair, source data average [2] | No. of axillary shoots, source data average [4] | mass increase of compound-treated ShHTL7 protein [5] | induction of ShHTL7-AtMAX2 interaction (Y2H) ([3]; 200 μM) | other results |
| --- | --- | --- | --- | --- | --- |
| CC1=C[C@H](O/C=C2/C(=O)O[C@@H]3c4ccccc4C[C@H]23)OC1=O (racemic) [rac-GR24, reference compound] | 474.342 |  |  |  | S. hermonthica germination EC50 values, source data average [1]: 10.4655 |
| CC1=CC(OC(=O)N2CCN(C(=O)COc3ccc(Br)cc3C)CC2)OC1=O (stereo not drawn) [4a] | 163.912 | 3.5 |  |  | pEC50 [1]: 11.97; induction of ShHTL7-AtMAX2 interaction (Y2H) ([3]; 1 μM): strongly induce the interaction |
| CC1=CC(OC(=O)N2CCN(C(=O)COc3ccc(Br)cc3C)CC2)CC1=O (stereo not drawn) [4g] |  |  | 94 Da | only weak ligand-induced interactions |  |
| CC1=CC(OC(=O)N2CCN(C(=O)COc3ccc(Br)cc3C)CC2)N(C)C1=O (stereo not drawn) [4h] |  |  |  |  | covalent modification of ShHTL7 [5]: not observed |
| CC1=CC(CC(=O)N2CCN(C(=O)COc3ccc(Br)cc3C)CC2)OC1=O (stereo not drawn) [4i] |  |  |  | almost no ligand-induced interactions were observed | covalent modification of ShHTL7 [5]: not observed |
| CC1=C[C@@H](OC(=O)N2CCN(C(=O)COc3ccc(Br)cc3C)CC2)OC1=O [(R)-4a] | 172.727 | 3.667 | 95 Da | did induce the interaction | pEC50 [1]: 8.96; induction of ShHTL7-AtMAX2 interaction (Y2H) ([3]; 1 and 5 μM): no ShHTL7-SMAX1 or ShHTL7-AtMAX2 interactions were detected |
| CC1=C[C@H](OC(=O)N2CCN(C(=O)COc3ccc(Br)cc3C)CC2)OC1=O [(S)-4a] | 211.816 | 2.6 | 94 Da |  | induction of ShHTL7-AtMAX2 interaction (Y2H) ([3]; 1 μM): strongly induce the interaction |
